Assay results reported in the NIST ThermoML archive (doi:10.1021/acs.jced.7b01030).
Several values for one entry are separate records, joined by “and”; a condition that tells them apart may be missing. Identical values can stand only once.

Settings: Liquid; for mass density: Vibrating tube method; for viscosity: Falling or rolling sphere viscometry; for self diffusion coefficient: NMR spin-echo technique

OCC(F)(F)F [2,2,2-trifluoroethanol]
Settings	mass density [kg/m3]	self diffusion coefficient	viscosity
303.15 K, 100 kPa	1374.17	–	–
308.15 K, 100 kPa	–	–	1.384 mPa·s
308.28 K, 100 kPa	–	9.35e-10 m2/s	–
313.15 K, 100 kPa	1356.64	–	1.219 mPa·s and 1.221 mPa·s
318.15 K, 100 kPa	–	–	1.081 mPa·s and 1.078 mPa·s
318.17 K, 100 kPa	–	1.24e-09 m2/s and 1.22e-09 m2/s	–
322.14 K, 10500 kPa	–	–	1.125 mPa·s and 1.128 mPa·s
322.14 K, 25500 kPa	–	–	1.286 mPa·s
322.14 K, 50500 kPa	–	–	1.561 mPa·s
322.14 K, 75000 kPa	–	–	1.827 mPa·s
322.14 K, 75200 kPa	–	–	1.828 mPa·s
322.14 K, 100300 kPa	–	–	2.137 mPa·s
323.15 K, 100 kPa	1338.58	–	0.989 mPa·s [middle of 9 runs]
323.15 K, 10000 kPa	–	–	1.091 mPa·s
323.15 K, 10100 kPa	–	–	1.09 mPa·s
323.15 K, 25300 kPa	–	–	1.246 mPa·s
323.15 K, 25400 kPa	–	–	1.248 mPa·s
323.15 K, 49500 kPa	–	–	1.492 mPa·s
323.15 K, 49700 kPa	–	–	1.493 mPa·s
323.15 K, 74800 kPa	–	–	1.781 mPa·s
323.15 K, 75000 kPa	–	–	1.789 mPa·s
323.15 K, 99900 kPa	–	–	2.075 mPa·s
323.15 K, 100000 kPa	–	–	2.073 mPa·s
323.15 K, 100400 kPa	–	–	2.096 mPa·s and 2.093 mPa·s
323.15 K, 125000 kPa	–	–	2.396 mPa·s
323.15 K, 125400 kPa	–	–	2.395 mPa·s
323.15 K, 150100 kPa	–	–	2.737 mPa·s
323.15 K, 150500 kPa	–	–	2.738 mPa·s
323.15 K, 176000 kPa	–	–	3.131 mPa·s
323.15 K, 200300 kPa	–	–	3.654 mPa·s
323.15 K, 200800 kPa	–	–	3.651 mPa·s
323.15 K, 210100 kPa	–	–	3.837 mPa·s and 3.849 mPa·s
323.15 K, 225200 kPa	–	–	4.134 mPa·s
323.15 K, 225300 kPa	–	–	4.131 mPa·s
323.15 K, 226700 kPa	–	–	4.028 mPa·s
323.15 K, 227900 kPa	–	–	4.058 mPa·s
323.15 K, 248900 kPa	–	–	4.6 mPa·s
323.15 K, 249400 kPa	–	–	4.614 mPa·s
323.15 K, 275300 kPa	–	–	5.192 mPa·s
323.15 K, 275600 kPa	–	–	5.209 mPa·s
323.15 K, 300600 kPa	–	–	5.834 mPa·s
323.15 K, 301200 kPa	–	–	5.853 mPa·s
323.15 K, 325600 kPa	–	–	6.509 mPa·s
323.15 K, 326200 kPa	–	–	6.562 mPa·s
323.15 K, 347900 kPa	–	–	7.187 mPa·s
323.15 K, 349200 kPa	–	–	7.207 mPa·s
323.4 K, 100 kPa	–	1.45e-09 m2/s	–
323.5 K, 100 kPa	–	1.39e-09 m2/s	–
323.51 K, 100 kPa	–	1.42e-09 m2/s	–
323.51 K, 23000 kPa	–	1.21e-09 m2/s	–
323.51 K, 50000 kPa	–	1.01e-09 m2/s	–
323.51 K, 74000 kPa	–	8.73e-10 m2/s	–
323.51 K, 99500 kPa	–	7.59e-10 m2/s	–
323.51 K, 300000 kPa	–	3.12e-10 m2/s	–
323.52 K, 150000 kPa	–	5.97e-10 m2/s	–
323.52 K, 198500 kPa	–	4.81e-10 m2/s	–
323.52 K, 249000 kPa	–	3.9e-10 m2/s	–
323.53 K, 351000 kPa	–	2.57e-10 m2/s	–
328.15 K, 100 kPa	–	–	0.8939 mPa·s and 0.8974 mPa·s
328.35 K, 100 kPa	–	1.63e-09 m2/s	–
333.15 K, 100 kPa	1319.81	–	0.8117 mPa·s
338.15 K, 100 kPa	1310.14	–	0.7379 mPa·s and 0.7382 mPa·s
338.44 K, 100 kPa	–	1.95e-09 m2/s	–
342.8 K, 100 kPa	–	2.21e-09 m2/s	–
343.15 K, 100 kPa	1300.26	–	0.671 mPa·s [middle of 5 runs]
343.15 K, 10500 kPa	–	–	0.7504 mPa·s and 0.7498 mPa·s
343.15 K, 25500 kPa	–	–	0.8438 mPa·s
343.15 K, 50000 kPa	–	–	1.016 mPa·s
343.15 K, 76400 kPa	–	–	1.229 mPa·s and 1.228 mPa·s
343.15 K, 99900 kPa	–	–	1.425 mPa·s
343.15 K, 100500 kPa	–	–	1.411 mPa·s
343.15 K, 100700 kPa	–	–	1.419 mPa·s and 1.416 mPa·s
343.15 K, 100900 kPa	–	–	1.421 mPa·s
343.15 K, 125800 kPa	–	–	1.666 mPa·s
343.15 K, 126100 kPa	–	–	1.66 mPa·s
343.15 K, 150000 kPa	–	–	1.894 mPa·s
343.15 K, 150200 kPa	–	–	1.899 mPa·s
343.15 K, 175300 kPa	–	–	2.141 mPa·s
343.15 K, 175600 kPa	–	–	2.149 mPa·s
343.15 K, 200400 kPa	–	–	2.397 mPa·s
343.15 K, 200700 kPa	–	–	2.409 mPa·s
343.15 K, 225200 kPa	–	–	2.644 mPa·s
343.15 K, 225400 kPa	–	–	2.672 mPa·s
343.15 K, 249500 kPa	–	–	2.924 mPa·s
343.15 K, 249800 kPa	–	–	2.935 mPa·s
343.15 K, 276600 kPa	–	–	3.259 mPa·s
343.15 K, 277100 kPa	–	–	3.277 mPa·s
343.15 K, 300300 kPa	–	–	3.57 mPa·s
343.15 K, 301200 kPa	–	–	3.596 mPa·s
343.15 K, 325100 kPa	–	–	3.91 mPa·s
343.15 K, 325600 kPa	–	–	3.939 mPa·s
343.15 K, 350100 kPa	–	–	4.306 mPa·s
343.15 K, 352100 kPa	–	–	4.376 mPa·s
348.02 K, 152000 kPa	–	1.06e-09 m2/s	–
348.06 K, 25000 kPa	–	2.11e-09 m2/s	–
348.06 K, 101000 kPa	–	1.35e-09 m2/s	–
348.07 K, 100 kPa	–	2.57e-09 m2/s	–
348.07 K, 50500 kPa	–	1.79e-09 m2/s	–
348.07 K, 74500 kPa	–	1.57e-09 m2/s	–
348.07 K, 348000 kPa	–	5.2e-10 m2/s	–
348.08 K, 175000 kPa	–	9.55e-10 m2/s	–
348.08 K, 200000 kPa	–	8.68e-10 m2/s	–
348.08 K, 249500 kPa	–	7.32e-10 m2/s	–
348.08 K, 299000 kPa	–	6.15e-10 m2/s	–
348.08 K, 350000 kPa	–	5.16e-10 m2/s	–
